# Laboratory results as given in article PMC7719162, “Positioning of an unprecedented spiro[5.5]undeca ring system into kinase inhibitor space” (Scientific Reports, 2020).
# Like-named read-outs stand apart in the source and are kept apart here.
# What was measured:
# [1] = tested on: NO production in LPS-activated BV-2 cells; assay: NO production assay (Griess) in LPS-activated BV-2 cells; format: cell-based, murine; conditions: Mus musculus, read-out: NO Inhibition IC50
# Method: (§1) 3-(4,5-dimethylthiazol-2-yl)-2,5-diphenyl-tetrazolium bromide (MTT) assay was performed to evaluate the cytotoxicity of the samples to the microglia. BV2 cells at the density of 4 × 10^4 cells /well were seeded in the 96 well plate and incubated for 24 h. Seeded cells were pre-treated with different concentration of the samples, and LPS (100 ng/ml) activation was performed after 30 min of compound treatment. Treated plate were incubated for 24 h in the incubator and nitric oxide assay and cell viability assay was performed. Treated cell’s conditioned medium was used to evaluate the NO assay, and the attached cells were used to evaluate the cell viability assay. 50 µL of conditioned medium (CM) from treated cells were transferred to a new 96 well plate for NO assay. This CM was mixed with the equal volume of the mixture of Gries reagent ((1% sulfanilamide and 0.1% N-1-napthylethylenediamine dihydrochloride). NaNO2 was used as standard and the colorimetric change were evidenced by measuring its OD at 540 nm in a microplate reader. The cells in the plate were incubated for 1 h with MTT solution making it the final concentration of […]. Blue stained cells were incubated with 200 ul of DMSO and the solution get changed to purple/formazan color and it was observed by measuring the absorbance at 570 nm in a microplate reader.NG-mono-methyl-L-arginine (L-NMMA), a well-known nitric oxide synthase (NOS) inhibitor, was used as a positive control.
# MTT cell viability assay = format: cell-based, murine; conditions: mouse, BV-2 microglia cells (LPS-activated), mean ± SD; for viability at 24 h, 1 µM: 1 μM compound; for viability at 24 h, 5 µM: 5 μM compound, % of LPS
# Method: as §1
# GSK3β = GSK3β (Homo sapiens, UniProt P49841); assay: GSK3β radiolabelled kinase assay (% residual activity, IC50, ATP competition); format: biochemical; conditions: for IC50: 10-dose, threefold dilution from 10 μM, read-out: IC50 of GSK3β activity; for remaining activity at 10 µM: at 10 μM compound
# EIF2AK1 = molecular target: T1, EIF2AK1 (Homo sapiens, UniProt Q9BQI3); assay: Kinase panel assay (radiolabelled); format: biochemical; conditions: control GSK-2606414
# T1 construct: purchased Reaction Biology Corp
# Method: Every inhibitory activity of tested compounds was measured by radiolabelled method of Reaction Biology Corp). The radiolabelled ATP ([γ-^33P] ATP) replaced a substrate with ^33P-phosphorylated substrate so that the activity of a kinase was measured from the radiolabelled phosphorylated substrate. Kinase panel assay was tested at 30 μM testing compounds with an ATP concentration of 10 μM and a substrate concentration of 10 μM. % Residual activity against GSK3β was measured at 10 uM compounds 1 and 2. […] Curve fits of control compounds were performed where the enzyme activities at the highest concentration of compounds were less than 65%. The concentration of DMSO was controlled and raw data, % kinase activity was calculated relative to DMSO controls.
# GSK3β, sequence (P49841 whole entry): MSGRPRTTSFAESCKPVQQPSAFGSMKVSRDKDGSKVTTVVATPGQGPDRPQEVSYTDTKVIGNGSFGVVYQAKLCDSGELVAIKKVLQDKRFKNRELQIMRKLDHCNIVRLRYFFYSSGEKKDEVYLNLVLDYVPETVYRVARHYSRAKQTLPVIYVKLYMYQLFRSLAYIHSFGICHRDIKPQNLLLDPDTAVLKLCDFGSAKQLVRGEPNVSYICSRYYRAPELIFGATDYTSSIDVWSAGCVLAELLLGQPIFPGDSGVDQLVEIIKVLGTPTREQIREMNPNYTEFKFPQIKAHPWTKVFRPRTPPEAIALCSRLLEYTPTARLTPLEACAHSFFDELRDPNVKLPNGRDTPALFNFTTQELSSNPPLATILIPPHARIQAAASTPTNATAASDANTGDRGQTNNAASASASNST
# T1 sequence (Q9BQI3 whole entry): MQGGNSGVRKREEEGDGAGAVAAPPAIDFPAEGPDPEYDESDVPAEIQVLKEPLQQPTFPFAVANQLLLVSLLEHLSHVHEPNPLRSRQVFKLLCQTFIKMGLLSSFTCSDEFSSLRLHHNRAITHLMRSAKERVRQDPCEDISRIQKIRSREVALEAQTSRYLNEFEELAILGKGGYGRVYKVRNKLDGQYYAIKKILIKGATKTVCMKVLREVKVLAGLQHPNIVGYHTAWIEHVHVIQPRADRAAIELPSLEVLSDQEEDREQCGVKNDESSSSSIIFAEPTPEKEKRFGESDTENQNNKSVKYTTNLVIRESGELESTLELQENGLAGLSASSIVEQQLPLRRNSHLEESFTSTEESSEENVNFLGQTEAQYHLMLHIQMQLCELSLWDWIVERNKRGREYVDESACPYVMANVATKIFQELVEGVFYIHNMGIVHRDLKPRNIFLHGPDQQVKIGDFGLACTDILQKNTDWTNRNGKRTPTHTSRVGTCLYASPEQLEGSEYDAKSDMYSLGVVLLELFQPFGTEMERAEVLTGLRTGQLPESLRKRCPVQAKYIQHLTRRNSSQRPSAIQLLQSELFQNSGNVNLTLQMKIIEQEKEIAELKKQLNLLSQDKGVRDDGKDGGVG
SMILES,IC50 [1] [nM],"viability at 24 h, 1 µM (MTT cell viability assay) [%]","viability at 24 h, 5 µM (MTT cell viability assay) [%]",remaining activity at 10 µM (GSK3β) [%],other results
"[H]/N=C(/NC)NCCC[C@H](N)C(=O)O [L-NMMA, NG-mono-methyl-L-arginine, reference compound]",19600 ± 420,101 ± 1.6,105 ± 4,–,–
"O=C1C=CC2(C=C1)OCC(Cc1cn(-c3cccc(Cc4ccccc4)c3)nn1)C(=O)N2c1ccccc1 (centres unmarked) [2j, 3-((1-(3-Benzylphenyl)-1H-1,2,3-triazol-4-yl)methyl)-5-phenyl-1-oxa-5-azaspiro[5.5]undeca-7,10-diene-4,9-dione]",630 ± 10,107 ± 6.88,74 ± 4,10.5 ± 2,"IC50 (GSK3β; ATP 1 µM): 2650 nM; IC50 (GSK3β; ATP 10 µM): 3530 nM; IC50 (GSK3β; ATP 50 µM): 3790 nM; IC50 (GSK3β; ATP 100 µM): 4040 nM; IC50 (GSK3β; ATP 200 µM): 3450 nM; dependence of GSK3β IC50 on ATP concentration (GSK3β; ATP 1, 10, 50, 100 and 200 µM): retained its IC50 activity regardless of the ATP concentration"
"O=C1C=CC2(C=C1)OCC(Cc1cn(-c3ccc(Br)cc3)nn1)C(=O)N2c1ccccc1 (centres unmarked) [2e, 3-((1-(4-Bromophenyl)-1H-1,2,3-triazol-4-yl)methyl)-5-phenyl-1-oxa-5-azaspiro[5.5]undeca-7,10-diene-4,9-dione]",670 ± 10,106 ± 1.28,93 ± 6,69.6 ± 5.1,–
"O=C1C=CC2(C=C1)OCC(Cc1cn(-c3cccnc3)nn1)C(=O)N2c1ccccc1 (centres unmarked) [2b, 5-Phenyl-3-((1-(pyridin-3-yl)-1H-1,2,3-triazol-4-yl)methyl)-1-oxa-5-azaspiro[5.5]undeca-7,10-diene-4,9-dione]",870 ± 110,–,120 ± 11,87.5 ± 0.6,–
"Cn1cc(-c2ccc3c(c2)CCN3C(=O)Cc2cccc(C(F)(F)F)c2)c2c(N)ncnc21 [GSK-2606414, reference compound]",–,–,–,–,IC50 (EIF2AK1): 106 nM
"O=C1C=CC2(C=C1)OCC(Cc1cn(-c3ccc(F)cc3)nn1)C(=O)N2c1ccccc1 (centres unmarked) [2c, 3-((1-(4-Fluorophenyl)-1H-1,2,3-triazol-4-yl)methyl)-5-phenyl-1-oxa-5-azaspiro[5.5]undeca-7,10-diene-4,9-dione]",780 ± 40,–,109 ± 13,84.8 ± 5.3,–
O=C1C=CC2(C=C1)OCC(Cc1ccccc1)C(=O)N2c1ccccc1 (centres unmarked) [1a],540,95 ± 6.87,74 ± 7,85.8 ± 16.1,–
"COc1cc(-n2cc(CC3COC4(C=CC(=O)C=C4)N(c4ccccc4)C3=O)nn2)ccc1F (centres unmarked) [2n, 3-((1-(4-fluoro-3-methoxyphenyl)-1H-1,2,3-triazol-4-yl)methyl)-5-phenyl-1-oxa-5-azaspiro[5.5]undeca-7,10-diene-4,9-dione]",850 ± 40,–,102 ± 8,85.6 ± 2,–
"O=C1C=CC2(C=C1)OCC(Cc1cn(-c3ccc(C(F)(F)F)cc3)nn1)C(=O)N2c1ccccc1 (centres unmarked) [2f, 5-Phenyl-3-((1-(4-(trifluoromethyl)phenyl)-1H-1,2,3-triazol-4-yl)methyl)-1-oxa-5-azaspiro[5.5]undeca-7,10-diene-4,9-dione]",770 ± 20,–,115 ± 3,96.3 ± 16.5,–
"O=C1C=CC2(C=C1)OCC(Cc1cn(Cc3ccccc3)nn1)C(=O)N2c1ccccc1 (centres unmarked) [2r, 3-((1-Benzyl-1H-1,2,3-triazol-4-yl)methyl)-5-phenyl-1-oxa-5-azaspiro[5.5]undeca-7,10-diene-4,9-dione]",650 ± 60,101.3 ± 0.67,75 ± 11,61.7 ± 13.8,–
"O=C1C=CC2(C=C1)OCC(Cc1cn(C34CC5CC(CC(C5)C3)C4)nn1)C(=O)N2c1ccccc1 [2q, 3-((1-((3R,5S)-adamantan-1-yl)-1H-1,2,3-triazol-4-yl)methyl)-5-phenyl-1-oxa-5-azaspiro[5.5]undeca-7,10-diene-4,9-dione]",780 ± 100,–,87 ± 7,71.6 ± 1.4,–
